In this assay the target is Coagulation factor XII (Homo sapiens) (UniProt P00748). Nature of the assay: human FXIIa protease inhibitors, dose response, biochemical, confirmation of 1536-well hits (AID 852). As to conditions: purified human plasma FXIIa, fluorogenic AMC substrate, 384-well, 2 h.
Sequence of Coagulation factor XII (Homo sapiens) (P00748 20-372 limits assumed): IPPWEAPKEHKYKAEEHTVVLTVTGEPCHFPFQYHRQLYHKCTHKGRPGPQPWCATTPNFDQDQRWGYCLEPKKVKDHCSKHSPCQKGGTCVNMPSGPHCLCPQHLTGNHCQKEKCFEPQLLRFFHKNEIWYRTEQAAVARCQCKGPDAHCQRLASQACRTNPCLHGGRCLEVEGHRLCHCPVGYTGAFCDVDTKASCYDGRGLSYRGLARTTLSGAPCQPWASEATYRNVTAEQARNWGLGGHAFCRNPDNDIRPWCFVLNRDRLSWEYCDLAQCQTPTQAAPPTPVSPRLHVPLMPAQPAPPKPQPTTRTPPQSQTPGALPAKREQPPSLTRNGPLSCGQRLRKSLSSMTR
Sequence of Coagulation factor XII (Homo sapiens) (P00748 373-615 limits assumed): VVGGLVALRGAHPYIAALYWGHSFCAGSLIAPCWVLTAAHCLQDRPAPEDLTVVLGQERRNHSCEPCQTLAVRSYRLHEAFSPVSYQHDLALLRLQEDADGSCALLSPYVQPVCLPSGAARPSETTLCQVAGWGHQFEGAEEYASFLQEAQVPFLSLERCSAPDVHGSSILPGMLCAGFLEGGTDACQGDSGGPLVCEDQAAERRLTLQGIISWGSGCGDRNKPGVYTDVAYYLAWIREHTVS

One may read the IC50 as the concentration that inhibits the measured activity by half. Regarding `O=C(Oc1ccc2c3c(c(=O)oc2c1)CCC3)c1ccco1`, the 50% inhibitory concentration (IC50) is 6.22 µM. For the compound `Cc1ccc(C(=O)n2nc(-c3cccnc3)nc2N)cc1`, the IC50 is 0.796 µM.

For `O=C(Oc1ccc(Cl)c2cccnc12)c1ccco1`, the IC50 is 21.6 µM.

For the origin of these results see PubChem BioAssay AID852 (PCMD, 2007).
